Results published in patent publication US6891062B2, “Pharmaceutical composition for treatment of diseases associated with decrease in bone mass” (Ono Pharmaceutical Co., Ltd., priority 1999, dated 2005).

Test system: Beagle/CSK strain dogs
Assay: Promoting action on bone formation: determination of bone area of femur
Assay type: in vivo, dog
Details: for bone area: dog femur, 4 weeks
Source text: Beagle/CSK strain dogs of 6-month old were used (n=3 to 6 per group). Into a physical saline solution, each (11 α, 15 α, 13E)-9-oxo-11,15-dihydroxy-16-(3-methoxymethylphenyl)-17,18,19,20-tetranor-5-t hiaprost-13-enoic acid methyl ester (methyl ester of a compound of the formula (IE)) α-cyclodextrin clathrate (containing rate of an active ingredient in α-cyclodextrin clathrate form is 25% w/w), (11 α, 15 α, 13E)-9-oxo-11,15-dihydroxy-16-(3-methoxymethylphenyl)-17,18,19,20-tetranor-3,7-dithiaprost-13-enoic acid (a compound of the formula (IF)), (9β, 11 α, 15 α, 5Z, 13E)-9-chloro-11,15-dihydroxy-16-(3-ethoxymethylphenyl)-17,18,19,20-tetranorpro st-5,13-dienoic acid (a compound of the formula (IG)), (11 α, 15 α, 13E)-9-oxo-11,15-dihydroxy-16-(3-methoxymethylphenyl)-17,18,19,20-tetranorpro st-13-enoic acid (methyl ester of a compound of the formula (IH)), and (11 α, 15 α, 5Z, 13E)-9-oxo-11,15-dihydroxy-16-(3-ethoxymethylphenyl)-17,18,19,20-tetranorprost-5,13-dienoic acid (a compound of the formula (IJ)) was dissolved, and administered continuously to each animal at the effective doses of 2, 5, 10 and 25 μg/kg/day, for 24 hours per day during 4 weeks. Each test solution was administered into femoral vein through holding-catheter at the rate of 0.2 ml/kg/hour. An equal volume of physical saline solution was administered into an animal of the control group. After termination of administration, each animal was sacrificed to carry out autopsy. The separated femur was fixed with 10% buffered formalin solution and then was cut into a round slice with the width of 10 mm vertically to longitudinal axis at the 25 mm central side from trochlea sulcus. Pictures of bone surface near side of epiphysis were taken with camera connected to the computer from the constant distance, and then the resulted digital image was analyzed to determine bone area.

[1] = 5 μg/kg/day continuous into femoral vein

SMILES | bone area (10 μg/kg/day continuous into femoral vein) [mm^2] | bone area (25 μg/kg/day continuous into femoral vein) [mm^2] | increase of bone area compared with Untreated Group (dog, 25 μg/kg/day) [fold] | bone area [1] [mm^2]
CCOCc1cccc(C[C@H](O)/C=C/[C@@H]2[C@@H](C/C=C\CCCC(=O)O)[C@H](Cl)C[C@H]2O)c1 [Invention compound (IG), (9β, 11 α, 15 α, 5Z, 13E)-9-chloro-11,15-dihydroxy-16-(3-ethoxymethylphenyl)-17,18,19,20-tetranorpro st-5,13-dienoic acid] | 140.10 ± 28.08 | 289.38 ± 120.50 | 4.2 | 
COCc1cccc(C[C@H](O)/C=C/[C@H]2[C@H](O)CC(=O)[C@@H]2SCCCSCC(=O)O)c1 [Invention compound (IF), (11 α, 15 α, 13E)-9-oxo-11,15-dihydroxy-16-(3-methoxymethylphenyl)-17,18,19,20-tetranor-3,7-dithiaprost-13-enoic acid] |  |  |  | 365.29 ± 73.63
COCc1cccc(C[C@H](O)/C=C/[C@H]2[C@H](O)CC(=O)[C@@H]2CCCCCCC(=O)O)c1 [Invention compound (IH), (11 α, 15 α, 13E)-9-oxo-11,15-dihydroxy-16-(3-methoxymethylphenyl)-17,18,19,20-tetranorpro st-13-enoic acid] |  |  |  | 362.99 ± 89.56
CCOCc1cccc(C[C@H](O)/C=C/[C@H]2[C@H](O)CC(=O)[C@@H]2C/C=C\CCCC(=O)O)c1 [Invention compound (IJ), (11 α, 15 α, 5Z, 13E)-9-oxo-11,15-dihydroxy-16-(3-ethoxymethylphenyl)-17,18,19,20-tetranorprost-5,13-dienoic acid] |  |  |  | 193.23 ± 11.32
